Test results taken from ChEMBL document CHEMBL3885881, “DrugMatrix”.

Species on record: Rattus norvegicus
Experiment: DrugMatrix - Regimen: Daily Repeat
Format: toxicity, organism-based, Sprague-Dawley
Set-up: regimen Daily Repeat, gender Male, age 6-8 weeks
Conditions: in vivo, po, route oral GAVAGE, […]; for ABSOLUTE BASOPHIL / ABSOLUTE EOSINOPHIL / ABSOLUTE LYMPHOCYTE / ABSOLUTE MONOCYTE / ABSOLUTE SEGMENTED NEUTROPHIL / BASOPHIL / EOSINOPHIL / ERYTHROCYTE COUNT / HEMATOCRIT / HEMOGLOBIN / LEUKOCYTE COUNT / LYMPHOCYTE / MEAN CORPUSCULAR HEMOGLOBIN / MEAN CORPUSCULAR HEMOGLOBIN CONCENTRATION / MEAN CORPUSCULAR VOLUME / MONOCYTE / NEUTROPHIL / NUCLEATED RED BLOOD CELLS / PLATELET COUNT: tissue Blood; for ALANINE AMINOTRANSFERASE / ALBUMIN / ALKALINE PHOSPHATASE / ASPARTATE AMINOTRANSFERASE / BLOOD UREA NITROGEN / CARBON DIOXIDE / CHLORIDE / CHOLESTEROL / CREATINE PHOSPHOKINASE / CREATININE / GLUCOSE / LACTATE DEHYDROGENASE / LIPASE / PHOSPHORUS / POTASSIUM / SODIUM / TOTAL BILIRUBIN / TOTAL PROTEIN / URIC ACID: tissue Plasma
[1] = 0 mg/kg, 72 h, dose level Control, time 3 day
[2] = 0 mg/kg, 120 h, dose level Control, time 5 day
[3] = 80 mg/kg, 72 h, dose level Low, time 3 day

`CC(C)(Oc1ccc(C2CCCc3ccccc32)cc1)C(=O)O` (centres undefined) [NAFENOPIN] was tested, and the “ABSOLUTE BASOPHIL” value [1] was 0 CELLS/uL, the “ABSOLUTE EOSINOPHIL” value [1] was 47.67 CELLS/uL and the “ABSOLUTE LYMPHOCYTE” value [1] was 11079 CELLS/uL. The “ABSOLUTE MONOCYTE” value [1] was 251.67 CELLS/uL, the “ABSOLUTE SEGMENTED NEUTROPHIL” value [1] was 1505 CELLS/uL and the BASOPHIL [1] was 0%. For the same compound, the EOSINOPHIL [1] was 0.33%, the “ERYTHROCYTE COUNT” value [1] was 5.31 x10E6/uL and the HEMATOCRIT [1] was 32.87%. For the same compound, the HEMOGLOBIN [1] was 12.27 G/DL, the “LEUKOCYTE COUNT” value [1] was 12.88 x10E3/uL and the LYMPHOCYTE [1] was 86.17%. The “MEAN CORPUSCULAR HEMOGLOBIN” value [1] was 23.2 pg, the “MEAN CORPUSCULAR HEMOGLOBIN CONCENTRATION” value [1] was 37.37 G/DL and the “MEAN CORPUSCULAR VOLUME” value [1] was 62.03 fL. For the same compound, the MONOCYTE [1] was 2%, the NEUTROPHIL [1] was 11.5% and the “NUCLEATED RED BLOOD CELLS” value [1] was 0 /100WBC. For the same compound, the “PLATELET COUNT” value [1] was 956.5 x10E3/uL, the “ALANINE AMINOTRANSFERASE” value [1] was 69.67 u/L and the ALBUMIN [1] was 4.15 G/DL. For the same compound, the “ALKALINE PHOSPHATASE” value [1] was 415.33 u/L, the “ASPARTATE AMINOTRANSFERASE” value [1] was 93.17 u/L and the “BLOOD UREA NITROGEN” value [1] was 17.33 mg/dL. The “CARBON DIOXIDE” value [1] was 27.33 mmol/L, the CHLORIDE [1] was 100.17 MEQ/L and the CHOLESTEROL [1] was 76.5 mg/dL. The “CREATINE PHOSPHOKINASE” value [1] was 587 u/L, the CREATININE [1] was 0.25 mg/dL and the GLUCOSE [1] was 155.5 mg/dL. The “LACTATE DEHYDROGENASE” value [1] was 343.5 u/L, the LIPASE [1] was 11.17 u/L and the PHOSPHORUS [1] was 11.77 mg/dL. For the same compound, the POTASSIUM [1] was 6.51 MEQ/L, the SODIUM [1] was 140.93 MEQ/L and the “TOTAL BILIRUBIN” value [1] was 0.2 mg/dL. For the same compound, the “TOTAL PROTEIN” value [1] was 5.87 G/DL, the “URIC ACID” value [1] was 1.43 mg/dL and the “ABSOLUTE BASOPHIL” value [2] was 0 CELLS/uL. For the same compound, the “ABSOLUTE EOSINOPHIL” value [2] was 22.67 CELLS/uL, the “ABSOLUTE LYMPHOCYTE” value [2] was 12729.33 CELLS/uL and the “ABSOLUTE MONOCYTE” value [2] was 424.67 CELLS/uL. For the same compound, the “ABSOLUTE SEGMENTED NEUTROPHIL” value [2] was 2006.67 CELLS/uL, the BASOPHIL [2] was 0% and the EOSINOPHIL [2] was 0.17%. For the same compound, the “ERYTHROCYTE COUNT” value [2] was 5.48 x10E6/uL, the HEMATOCRIT [2] was 33.32% and the HEMOGLOBIN [2] was 12.73 G/DL. The “LEUKOCYTE COUNT” value [2] was 15.18 x10E3/uL, the LYMPHOCYTE [2] was 83.83% and the “MEAN CORPUSCULAR HEMOGLOBIN” value [2] was 23.25 pg. The “MEAN CORPUSCULAR HEMOGLOBIN CONCENTRATION” value [2] was 38.22 G/DL, the “MEAN CORPUSCULAR VOLUME” value [2] was 60.85 fL and the MONOCYTE [2] was 2.83%. The NEUTROPHIL [2] was 13.17%, the “NUCLEATED RED BLOOD CELLS” value [2] was 0 /100WBC and the “PLATELET COUNT” value [2] was 909.83 x10E3/uL. The “ALANINE AMINOTRANSFERASE” value [2] was 57.67 u/L, the ALBUMIN [2] was 4.03 G/DL and the “ALKALINE PHOSPHATASE” value [2] was 472.33 u/L. For the same compound, the “ASPARTATE AMINOTRANSFERASE” value [2] was 80.83 u/L, the “BLOOD UREA NITROGEN” value [2] was 14.67 mg/dL and the “CARBON DIOXIDE” value [2] was 31.83 mmol/L. The CHLORIDE [2] was 96 MEQ/L, the CHOLESTEROL [2] was 68 mg/dL and the “CREATINE PHOSPHOKINASE” value [2] was 281.67 u/L. For the same compound, the CREATININE [2] was 0.19 mg/dL, the GLUCOSE [2] was 147.33 mg/dL and the “LACTATE DEHYDROGENASE” value [2] was 210.83 u/L. For the same compound, the LIPASE [2] was 11 u/L, the PHOSPHORUS [2] was 11.63 mg/dL and the POTASSIUM [2] was 6.06 MEQ/L. The SODIUM [2] was 139.37 MEQ/L, the “TOTAL BILIRUBIN” value [2] was 0.17 mg/dL and the “TOTAL PROTEIN” value [2] was 5.82 G/DL. For the same compound, the “URIC ACID” value [2] was 1.12 mg/dL, the “ABSOLUTE BASOPHIL” value [3] was 0 CELLS/uL and the “ABSOLUTE EOSINOPHIL” value [3] was 91 CELLS/uL. The “ABSOLUTE LYMPHOCYTE” value [3] was 10987.33 CELLS/uL, the “ABSOLUTE MONOCYTE” value [3] was 229 CELLS/uL and the “ABSOLUTE SEGMENTED NEUTROPHIL” value [3] was 2392.67 CELLS/uL. For the same compound, the BASOPHIL [3] was 0%, the EOSINOPHIL [3] was 0.67% and the “ERYTHROCYTE COUNT” value [3] was 5.31 x10E6/uL. The HEMATOCRIT [3] was 33.1%, the HEMOGLOBIN [3] was 12.4 G/DL and the “LEUKOCYTE COUNT” value [3] was 13.7 x10E3/uL. The LYMPHOCYTE [3] was 80.33%, the “MEAN CORPUSCULAR HEMOGLOBIN” value [3] was 23.37 pg and the “MEAN CORPUSCULAR HEMOGLOBIN CONCENTRATION” value [3] was 37.47 G/DL. The “MEAN CORPUSCULAR VOLUME” value [3] was 62.37 fL, the MONOCYTE [3] was 1.67% and the NEUTROPHIL [3] was 17.33%. For the same compound, the “NUCLEATED RED BLOOD CELLS” value [3] was 0 /100WBC, the “PLATELET COUNT” value [3] was 1097 x10E3/uL and the “ALANINE AMINOTRANSFERASE” value [3] was 88 u/L. The ALBUMIN [3] was 4.7 G/DL, the “ALKALINE PHOSPHATASE” value [3] was 593 u/L and the “ASPARTATE AMINOTRANSFERASE” value [3] was 109.67 u/L. The “BLOOD UREA NITROGEN” value [3] was 15.33 mg/dL, the “CARBON DIOXIDE” value [3] was 25.67 mmol/L and the CHLORIDE [3] was 102.33 MEQ/L. The CHOLESTEROL [3] was 44.33 mg/dL, the “CREATINE PHOSPHOKINASE” value [3] was 372 u/L and the CREATININE [3] was 0.23 mg/dL. The GLUCOSE [3] was 141 mg/dL, the “LACTATE DEHYDROGENASE” value [3] was 370.67 u/L and the LIPASE [3] was 10.67 u/L. The PHOSPHORUS [3] was 12.4 mg/dL, the POTASSIUM [3] was 6.4 MEQ/L and the SODIUM [3] was 144.37 MEQ/L. The “TOTAL BILIRUBIN” value [3] was 0.1 mg/dL, the “TOTAL PROTEIN” value [3] was 5.57 G/DL and the “URIC ACID” value [3] was 1.3 mg/dL.
